Columns and labels:
[1] = Part A: PK of single-dose fruquintinib alone and with itraconazole (CYP3A inhibition); type: in vivo, human; settings: for MPR AUC0‐inf (metabolite‐to‐parent ratio) / MPR AUC0‐t (metabolite‐to‐parent ratio) / MPR Cmax (metabolite‐to‐parent ratio): M11 to fruquintinib; for MPR AUC0‐inf (metabolite‐to‐parent ratio) / MPR AUC0‐t (metabolite‐to‐parent ratio) / MPR Cmax (metabolite‐to‐parent ratio) / Cmax / Tmax / half-life / AUC: Part A; for MPR AUC0‐inf (metabolite‐to‐parent ratio) / MPR AUC0‐t (metabolite‐to‐parent ratio) / MPR Cmax (metabolite‐to‐parent ratio) / Cmax / half-life / AUC: arithmetic mean (SD); for Cmax / Tmax / half-life / AUC: both sexes, human, oral, metabolite M11 in plasma; for Cmax: read-out: Cmax; for Tmax: median (minimum‐maximum); for half-life / AUC: plasma
Excerpt: (§1) This was a single‐center, open‐label, 2‐part (Part A and Part B), 2‐period, fixed‐sequence study conducted in healthy male and female subjects. Parts A and B evaluated the effect of the CYP3A inhibitor itraconazole and the CYP3A inducer rifampin on the PK profile of fruquintinib, respectively. Each part consisted of a screening phase, a treatment phase (Period 1 and Period 2), and an end‐of‐study (EOS) phase. Screening occurred within 21 days before the first study drug administration. There was at least a 14‐day washout of fruquintinib between treatment periods. PK samples were collected before dosing and over 168 hours following the fruquintinib dose in Part A (with itraconazole) and Part B (with rifampin). Part A and Part B were enrolled independently.
In Part A, subjects were administered fruquintinib alone in Treatment Period 1 and in combination with itraconazole in Treatment Period 2. Study Day 1 was considered the start of Treatment Period 1, and Study Day 15 was considered the start of Treatment Period 2. On Study Day 1, subjects received a single dose of fruquintinib 5 mg by mouth under fasted conditions (subjects fasted for at least 10 hours before fruquintinib dosing and 4 hours after), and on Study Day 19 subjects received a second single dose of fruquintinib 5 mg by mouth under fasted conditions, alongside itraconazole. On Study Day 15, subjects began a regimen of itraconazole 200 mg by mouth twice a day, followed by once daily dosing on Study Days 16‐25. A dose of 200 mg was selected, with a loading dose as part of a 5‐day lead‐in (twice daily for 1 day, once daily for 4 days) to achieve appropriate inhibition of CYP3A before dosing with fruquintinib.[10] Once‐daily dosing of itraconazole for an additional 5 days throughout the fruquintinib PK sampling period was continued to maintain CYP3A inhibition.[11]
As itraconazole oral bioavailability is maximal when the capsules are taken immediately after a full meal,[12] it was administered under fed conditions except when coadministered with fruquintinib on Study Day 19. Itraconazole doses were administered 30 minutes after the start of breakfast on Study Days 15‐18 and Study Days 20‐25. On Study Day 19, subjects received both treatments under fasted conditions, and itraconazole was administered 1 hour before administration of a single dose of fruquintinib 5 mg by mouth. Subjects were discharged after completion of EOS procedures on Study Day 26 or at early withdrawal.
(§2) Blood samples for determination of fruquintinib and metabolite M11 plasma concentrations were collected before dosing and at 0.5, 1, 1.5, 2, 3, 4, 6, 8, 12, 24, 36, 48, 72, 96, 120, 144, and 168 hours after fruquintinib dosing. Plasma samples were analyzed by LabCorp Bioanalytical (Indianapolis, IN) using a validated liquid chromatography with tandem mass spectrometry assay method with an analytical range of 1.00 ng/mL (lower limit of quantitation) to 750 ng/mL (upper limit of quantitation) for both fruquintinib and M11.[6] Interrun variability was 6.3% or less and 13.8% or less for fruquintinib and M11, respectively. Quality control samples at 4 concentrations (3, 30, 300, and 600 ng/mL) were assayed along with study samples, and the bias quality control sample concentrations deviated by ±2.0% and ±2.7% from the nominal concentrations for fruquintinib and M11, respectively.
PK parameters were determined by noncompartmental analysis and included maximum plasma concentration (Cmax); time to reach Cmax (tmax); area under the plasma concentration‐time curve (AUC) from time 0 to the time of the last measurable concentration (AUC0‐t); AUC from time 0 to infinity (AUC0‐inf); half‐life (t1/2); and the metabolite‐to‐parent ratios for Cmax, AUC0‐t, and AUC0‐inf. Apparent oral clearance and volume of distribution were also estimated for fruquintinib. […]

[2] = Part B: PK of single-dose fruquintinib alone and with rifampin (CYP3A induction); type: in vivo, human; settings: for MPR AUC0‐inf (metabolite‐to‐parent ratio) / MPR AUC0‐t (metabolite‐to‐parent ratio) / MPR Cmax (metabolite‐to‐parent ratio): M11 to fruquintinib; for MPR AUC0‐inf (metabolite‐to‐parent ratio) / MPR AUC0‐t (metabolite‐to‐parent ratio) / MPR Cmax (metabolite‐to‐parent ratio) / Cmax / half-life / AUC / Tmax: Part B; for MPR AUC0‐inf (metabolite‐to‐parent ratio) / MPR AUC0‐t (metabolite‐to‐parent ratio) / MPR Cmax (metabolite‐to‐parent ratio) / Cmax / half-life / AUC: arithmetic mean (SD); for Cmax / half-life / AUC / Tmax: metabolite M11 in plasma; for Cmax: read-out: Cmax; for Tmax: median (minimum‐maximum)
Excerpt: as §1
In Part B, subjects were administered fruquintinib alone in Treatment Period 1 and in combination with rifampin in Treatment Period 2. Study Day 1 was considered as the start of Treatment Period 1, and Study Day 8 was considered as the start of Treatment Period 2. On Study Day 1, a single dose of fruquintinib 5 mg by mouth was administered under fasted conditions, and on Study Day 15, a single dose of fruquintinib 5 mg was administered by mouth under fasted conditions alongside rifampin. Starting on Study Day 8, rifampin 600 mg was dosed by mouth once daily for 14 consecutive days, 7 days before fruquintinib dosing and 6 days after fruquintinib dosing, to ensure that induction was maintained throughout the PK sampling period. Subjects therefore received rifampin from Study Day 8 to Study Day 21. Absorption of rifampin is reduced by approximately 30% when the drug is ingested with food.[13] Therefore, rifampin was administered at least 1 hour before breakfast when given alone and under fasted conditions when administered with fruquintinib. Breakfast was given at least 1 hour after the rifampin doses on Study Days 8‐14 and Study Days 16‐21. On Study Day 15, subjects received both treatments under fasted conditions, and rifampin was administered 1hour before administration of a single dose of fruquintinib 5 mg by mouth. Subjects were discharged after completion of EOS procedures on Study Day 22 or at early withdrawal.
as §2
PK parameters were determined by noncompartmental analysis and included maximum plasma concentration (Cmax); time to reach Cmax (tmax); area under the plasma concentration‐time curve (AUC) from time 0 to the time of the last measurable concentration (AUC0‐t); AUC from time 0 to infinity (AUC0‐inf); half‐life (t1/2); and the metabolite‐to‐parent ratios for Cmax, AUC0‐t, and AUC0‐inf. Apparent oral clearance and volume of distribution were also estimated for fruquintinib.
For Part A, the effect of itraconazole based on the PK parameters of fruquintinib was evaluated using a linear mixed‐effect model with treatment (ie, fruquintinib with itraconazole [test] and fruquintinib alone [reference]) as fixed effects and subject as a random effect. A similar inferential analysis was performed for Part B, but fruquintinib with rifampin was the test group. […]

[3] = fruquintinib 5 mg + itraconazole 200 mg, n = 13
[4] = fruquintinib 5 mg + itraconazole 200 mg, n = 14
[5] = fruquintinib alone 5 mg, n = 14
[6] = coadministration of itraconazole
[7] = fruquintinib 5 mg + rifampin 600 mg, n = 13
[8] = fruquintinib alone 5 mg, n = 13

Question: Which “MPR AUC0‐inf (metabolite‐to‐parent ratio)” value [1, 3] does the source give for `COc1cc2ncnc(Oc3ccc4c(C(N)=O)c(C)oc4c3)c2cc1OC` [M11] here?
Answer: Its value is 0.177 (0.0371).

Question: What about the “MPR AUC0‐t (metabolite‐to‐parent ratio)” value [1, 4] of the same molecule?
Answer: Its value is 0.141 (0.0301).

Question: What about the “MPR Cmax (metabolite‐to‐parent ratio)” value [1, 4] of the same molecule?
Answer: The value was 0.0579 (0.0155).

Question: And the “MPR AUC0‐inf (metabolite‐to‐parent ratio)” value ([1]; fruquintinib alone 5 mg, n = 12)?
Answer: The value was 0.336 (0.0766).

Question: What about the “MPR AUC0‐t (metabolite‐to‐parent ratio)” value [1, 5] of the same molecule?
Answer: The value was 0.291 (0.0745).

Question: And the “MPR Cmax (metabolite‐to‐parent ratio)” value [1, 5]?
Answer: Its value is 0.121 (0.0358).

Question: And the Cmax [1, 4]?
Answer: The Cmax was 6.7 ng/mL.

Question: And the Tmax [1, 4]?
Answer: Its Tmax is 47.9 h.

Question: What about the Cmax [1, 5] of the same molecule?
Answer: Its Cmax is 15.2 ng/mL.

Question: And the Tmax [1, 5]?
Answer: Its Tmax is 72 h.

Question: And the half-life ([1]; 5 mg, fruquintinib alone 5 mg, n = 12)?
Answer: Its half-life is 58.6 h.

Question: And the AUC ([1]; 5 mg, fruquintinib alone 5 mg, n = 12, read-out: AUC0‐inf)?
Answer: The AUC was 2000 ng·h/mL.

Question: What about the AUC ([1]; 5 mg, fruquintinib alone 5 mg, n = 14, read-out: AUC0‐t) of the same molecule?
Answer: The AUC was 1580 ng·h/mL.

Question: And the half-life [1, 3]?
Answer: Its half-life is 70.5 h.

Question: And the AUC ([1]; fruquintinib 5 mg + itraconazole 200 mg, n = 13, read-out: AUC0‐inf)?
Answer: The AUC was 1100 ng·h/mL.

Question: What about the AUC ([1]; fruquintinib 5 mg + itraconazole 200 mg, n = 14, read-out: AUC0‐t) of the same molecule?
Answer: The AUC was 816 ng·h/mL.

Question: And the “decrease of M11 AUC0‐inf” value [1, 6]?
Answer: Its value is 44%.

Question: And the “decrease of M11 AUC0‐t” value [1, 6]?
Answer: Its value is 48%.

Question: And the “decrease of M11 Cmax” value [1, 6]?
Answer: The value was 55%.

Question: What about the “MPR AUC0‐inf (metabolite‐to‐parent ratio)” value [2, 7] of the same molecule?
Answer: Its value is 1.13 (0.269).

Question: And the “MPR AUC0‐t (metabolite‐to‐parent ratio)” value [2, 7]?
Answer: Its value is 1.12 (0.266).

Question: What about the “MPR Cmax (metabolite‐to‐parent ratio)” value [2, 7] of the same molecule?
Answer: Its value is 0.312 (0.0975).

Question: What about the “MPR AUC0‐inf (metabolite‐to‐parent ratio)” value [2, 8] of the same molecule?
Answer: Its value is 0.379 (0.0944).

Question: And the “MPR AUC0‐t (metabolite‐to‐parent ratio)” value [2, 8]?
Answer: The value was 0.295 (0.0848).

Question: And the “MPR Cmax (metabolite‐to‐parent ratio)” value [2, 5]?
Answer: The value was 0.117 (0.0462).

Question: And the Cmax ([2]; both sexes, human, oral, fruquintinib 5 mg + rifampin 600 mg, n = 13)?
Answer: The Cmax was 31.1 ng/mL.

Question: And the Cmax ([2]; both sexes, human, oral, fruquintinib alone 5 mg, n = 14)?
Answer: The Cmax was 13.7 ng/mL.

Question: And the half-life ([2]; both sexes, human, plasma, oral, 5 mg, fruquintinib alone 5 mg, n = 13)?
Answer: Its half-life is 71.8 h.

Question: What about the AUC ([2]; both sexes, human, plasma, oral, 5 mg, fruquintinib alone 5 mg, n = 13, read-out: AUC0‐inf) of the same molecule?
Answer: Its AUC is 2160 ng·h/mL.

Question: What about the AUC ([2]; both sexes, human, plasma, oral, 5 mg, fruquintinib alone 5 mg, n = 13, read-out: AUC0‐t) of the same molecule?
Answer: Its AUC is 1610 ng·h/mL.

Question: And the Tmax ([2]; both sexes, human, plasma, oral, 5 mg, fruquintinib alone 5 mg, n = 14, read-out: tmax)?
Answer: The Tmax was 48 h.

Question: And the half-life ([2]; both sexes, human, plasma, oral, fruquintinib 5 mg + rifampin 600 mg, n = 13)?
Answer: The half-life was 25.1 h.

Question: What about the AUC ([2]; both sexes, human, plasma, oral, fruquintinib 5 mg + rifampin 600 mg, n = 13, read-out: AUC0‐inf) of the same molecule?
Answer: Its AUC is 2200 ng·h/mL.

Question: And the AUC ([2]; both sexes, human, plasma, oral, fruquintinib 5 mg + rifampin 600 mg, n = 13, read-out: AUC0‐t)?
Answer: Its AUC is 2130 ng·h/mL.

Question: What about the Tmax ([2]; both sexes, human, plasma, oral, fruquintinib 5 mg + rifampin 600 mg, n = 13, read-out: tmax) of the same molecule?
Answer: Its Tmax is 23 h.

Question: And the “increase of M11 Cmax” value ([2]; coadministration of fruquintinib with rifampin versus fruquintinib alone)?
Answer: Its value is 2.3 fold.

Question: And the Tmax [2, 7]?
Answer: The Tmax was 22.9 (22.9–46.9) hour.
